Test results reported in ChEMBL document CHEMBL1141614, “Selective COX-2 inhibitors. Part 2: synthesis and biological evaluation of 4-benzylideneamino- and 4-phenyliminomethyl-benzenesulfonamides” (Bioorg Med Chem, 2008).

Columns and labels:
[1] = molecular target: Prostaglandin G/H synthase 1 (Homo sapiens, UniProt P23219); format: tissue-based, Blood
Description: Inhibition of COX1 in human whole blood assessed as effect on A-23187-stimulated TxB2 production

[2] = molecular target: T1, Prostaglandin G/H synthase 2 (Homo sapiens, UniProt P35354); test: Inhibition of COX2 in human whole blood assessed as effect on LPS-stimulated PGE2 production
T1 sequence (P35354 whole entry): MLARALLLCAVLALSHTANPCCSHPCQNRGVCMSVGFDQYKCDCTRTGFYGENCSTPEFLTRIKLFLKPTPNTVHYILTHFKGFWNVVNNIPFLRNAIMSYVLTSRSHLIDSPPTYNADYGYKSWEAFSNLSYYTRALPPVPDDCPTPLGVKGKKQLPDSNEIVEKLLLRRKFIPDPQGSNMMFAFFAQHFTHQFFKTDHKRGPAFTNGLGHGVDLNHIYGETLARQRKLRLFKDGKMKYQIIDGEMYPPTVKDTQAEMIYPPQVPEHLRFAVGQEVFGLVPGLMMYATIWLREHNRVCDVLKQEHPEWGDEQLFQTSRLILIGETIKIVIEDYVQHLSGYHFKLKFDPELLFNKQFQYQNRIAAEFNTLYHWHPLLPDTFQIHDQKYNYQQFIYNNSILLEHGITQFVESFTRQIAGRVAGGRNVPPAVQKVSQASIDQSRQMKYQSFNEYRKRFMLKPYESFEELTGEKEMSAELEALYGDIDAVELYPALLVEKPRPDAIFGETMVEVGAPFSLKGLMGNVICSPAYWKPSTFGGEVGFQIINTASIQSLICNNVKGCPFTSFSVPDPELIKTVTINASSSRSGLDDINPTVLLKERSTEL

Sequence of Prostaglandin G/H synthase 1 (P23219 whole entry): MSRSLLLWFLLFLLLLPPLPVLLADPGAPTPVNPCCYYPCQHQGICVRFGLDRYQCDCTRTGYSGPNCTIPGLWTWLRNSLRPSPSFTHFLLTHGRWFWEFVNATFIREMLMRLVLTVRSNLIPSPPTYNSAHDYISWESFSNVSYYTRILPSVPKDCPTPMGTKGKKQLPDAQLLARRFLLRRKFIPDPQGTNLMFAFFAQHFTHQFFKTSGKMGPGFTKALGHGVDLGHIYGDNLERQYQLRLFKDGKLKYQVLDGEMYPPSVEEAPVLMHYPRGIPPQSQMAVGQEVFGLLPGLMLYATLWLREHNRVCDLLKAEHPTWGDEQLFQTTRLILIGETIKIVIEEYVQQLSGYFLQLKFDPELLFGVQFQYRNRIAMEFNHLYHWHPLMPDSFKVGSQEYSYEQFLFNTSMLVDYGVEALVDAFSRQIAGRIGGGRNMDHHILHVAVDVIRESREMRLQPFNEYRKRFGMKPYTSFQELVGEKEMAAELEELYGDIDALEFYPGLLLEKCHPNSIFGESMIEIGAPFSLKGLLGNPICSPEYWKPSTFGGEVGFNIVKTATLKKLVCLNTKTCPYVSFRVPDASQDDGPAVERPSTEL

Structure (SMILES) | IC50 [1] [µM] | IC50 [2] [µM]
NS(=O)(=O)c1ccc(/N=C/c2cccc(O)c2)cc1 | 38.2 | 2.78
NS(=O)(=O)c1ccc(/N=C/c2ccc(F)cc2)cc1 | 159 | 2.22
NS(=O)(=O)c1ccc(/N=C/c2ccc([N+](=O)[O-])cc2)cc1 | 141 | 3
COC(=O)c1cc(/N=C/c2ccc(S(N)(=O)=O)cc2)ccc1O | 24 | 3.13
COc1ccc(/C=N/c2ccc(S(N)(=O)=O)cc2)cc1OC | 110 | 3.09
NS(=O)(=O)c1ccc(/N=C/c2ccc(O)cc2)cc1 | 148 | 3.42
COc1cccc(/C=N/c2ccc(S(N)(=O)=O)cc2)c1 | 383 | 5.45
COc1ccc(/C=N/c2ccc(S(N)(=O)=O)cc2)cc1O | 43.8 | 3.5
NS(=O)(=O)c1ccc(/N=C/c2cccc([N+](=O)[O-])c2)cc1 | 106 | 6.75
COc1cc(/C=N/c2ccc(S(N)(=O)=O)cc2)cc(OC)c1O | 156 | 2.71
COc1ccc(/C=N/c2ccc(S(N)(=O)=O)cc2)cc1 | 314 | 9.88
COc1ccc(/N=C/c2ccc(S(N)(=O)=O)cc2)cc1 | 60.7 | 4.14
COC(=O)c1ccc(/N=C/c2ccc(S(N)(=O)=O)cc2)cc1 | 56.7 | 3.72
NS(=O)(=O)c1ccc(/C=N/c2ccccc2)cc1 | 63.6 | 3.11
COc1cc(/C=N/c2ccc(S(N)(=O)=O)cc2)cc(OC)c1OC | 167 | 2.93
COc1cc(/C=N/c2ccc(S(N)(=O)=O)cc2)ccc1O | 78.2 | 2.95

Structure (SMILES) | IC50 [1] [µM] | IC50 [2] [µM]
NS(=O)(=O)c1ccc(/N=C/c2ccc(O)c(O)c2)cc1 | 23.2 | 2.85
NS(=O)(=O)c1ccc(/N=C/c2ccc(C(F)(F)F)cc2)cc1 | 182 | 4.6
COC(=O)c1ccc(/C=N/c2ccc(S(N)(=O)=O)cc2)cc1 | 184 | 2.73
NS(=O)(=O)c1ccc(/N=C/c2ccccc2)cc1 | 108 | 2.87
CN(C)c1ccc(/N=C/c2ccc(S(N)(=O)=O)cc2)cc1 | 64.4 | 1.95
COc1cc(/C=N/c2ccc(S(N)(=O)=O)cc2)cc(OC)c1 | 110 | 3.4
CCOc1cc(/C=N/c2ccc(S(N)(=O)=O)cc2)ccc1O | 47.9 | 3.69
NS(=O)(=O)c1ccc(/N=C/c2ccc(O)c(C(=O)O)c2)cc1 | 85.1 | 0.74
Cc1ccc(/N=C/c2ccc(S(N)(=O)=O)cc2)cc1 | 63.2 | 4.62
CN(C)c1ccc(/C=N/c2ccc(S(N)(=O)=O)cc2)cc1 | 196 | 3.36
NS(=O)(=O)c1ccc(/C=N/c2ccc(F)cc2)cc1 | 80.2 | 4.38
NS(=O)(=O)c1ccc(/C=N/c2ccc(O)cc2)cc1 | 51.8 | 5.09
NS(=O)(=O)c1ccc(/C=N/c2ccc(C(F)(F)F)cc2)cc1 | 43.9 | 6.54
Cc1ccc(/C=N/c2ccc(S(N)(=O)=O)cc2)cc1 | 190 | 4.94
COc1ccc(/N=C/c2ccc(S(N)(=O)=O)cc2)cc1OC | 31.3 | 4.28
